Entries after “also recorded” stand apart in the source; their conditions may differ. Read-outs that look alike come from different tables or passages of the source. Marks after values point to notes of the source that are not given here.
Assays:
QT interval = experiment: Population pharmacokinetic-pharmacodynamic model of piperaquine concentration vs double-delta-corrected QTc prolongation (12-lead ECG); type: in vivo, human
Procedure: Subjects were rested for at least 20 min before ECG measurements were taken (ECG‐1250 K, Nihon Kohden, Japan). 12‐lead ECG measurements were performed twice before drug administration, and at 1, 2, 4, 8, 12, and 24 h after each study drug administration. The ECGs were recorded at 10 mm mV^–1 sensitivity, and 25 mm s^–1 paper speed. Automatic readouts of all ECG measurements were collected but all ECGs with a reported QT interval greater than 450 ms were manually adjudicated by a research physician (unblinded) and a cardiologist (blinded). Other abnormal ECG waveforms were read by a cardiologist. Observed QT intervals were later corrected for heart rate by both the Fridericia and Bazett formulae 24. Data‐driven individual and study population correction factors were also evaluated (see section on methodology, below).
The observed QT interval must be corrected for heart rate in order to compare QT intervals between and within patients. Observed QT measurements were corrected by the traditionally used Bazett and Fridericia formulae (i.e. fixing the exponent (α) to 1/2 and 1/3, respectively, in Equation (5)). Furthermore, all observed individual QT and RR intervals from the placebo arm (i.e. primaquine‐alone arm) in a subject were used to determine the optimal individual QT correction factor (α) for each subject using ordinary least‐squares fit (Equation (5)). The calculated individual correction factor for a particular subject was then applied to all measured QT intervals for that subject, in order to generate corrected QT intervals (QTc) 24.
The appropriateness of the applied correction methods was evaluated by individual linear regression analysis of QTc vs. RR. The relationship between piperaquine drug concentrations and QRS, JT (i.e. QT – QRS) and QT intervals was evaluated with ordinary linear regression to assess the most appropriate modelling approach.
Double‐delta corrections are commonly performed to adjust for the observed circadian rhythm of ECG measurements 37. Thus, double‐delta‐corrected QTc prolongations (ΔΔQTc) were calculated by subtracting the placebo arm ΔQTc from the treatment arm ΔQTc, as in Equation (7). The primaquine‐alone arm was used as the placebo arm.
Calculated ΔΔQTc‐prolongations were used as the pharmacodynamic endpoint. Individually predicted piperaquine concentrations (CP) were obtained from imputing individual pharmacokinetic parameter estimates directly into the pharmacodynamic model. The relationship between drug exposure and QT prolongation was evaluated initially by a linear direct‐response pharmacodynamic model, as in Equation (8).
(8) ΔΔQTc=θ1+η1+θ2×CPt+εi where θ1 represents the typical baseline ΔΔQTc prolongation, η1 is the normally distributed between‐subject variability, θ2 is the slope of the exposure–response relationship and εi is the normally distributed residual error. Different exposure–response relationships (i.e. power model and EMAX model) were also investigated during the model development process. Hysteresis was investigated to account for a possible delayed exposure–response relationship (i.e. turn‐over and link models).
Age, gender, electrolyte levels (i.e. potassium and sodium) at admission and concomitant primaquine administration were evaluated as linear covariates on the piperaquine‐related ΔΔQTc prolongation, using a stepwise addition–deletion approach (as described above). Model evaluation and diagnostics were performed in the same manner as for the pharmacokinetic modelling approach.

[1] = Population pharmacokinetic modelling of DHA and piperaquine plasma concentrations in healthy Thai volunteers; type: in vivo, human; details: for half-life / AUC / Cmax / Tmax: both sexes, plasma, oral; for AUC: read-out: AUC (time zero to infinity), median (range); for Cmax: read-out: CMAX, median (range); for Tmax: read-out: TMAX, median (range); for MTT (mean transit time), population estimate (%RSE): oral DHA-piperaquine three tablets
Procedure: It was a descriptive pharmacokinetic-pharmacodynamic study and no formal sample size calculations were performed. […] All volunteers received primaquine alone in the first phase, followed by a washout period of 1 week. In the second and third phases, volunteers received DHA-piperaquine alone and DHA-piperaquine coadministered with primaquine at random, with an intervening washout period of 8 weeks. Study drug regimens comprised two tablets of primaquine (each tablet containing 15 mg primaquine base) and three tablets of co-formulated DHA-piperaquine (each tablet containing 40 mg DHA and 320 mg piperaquine phosphate). Study drugs were administered in the morning, 30 min after a light meal (~200 kcal and 8 g fat) with a glass of water. Venous blood samples (2 ml) were collected into fluoride-oxalate blood collection tubes. Blood samples were taken at 0 (predose), 0.25, 0.5, 1, 1.5, 2, 3, 4, 6, 8, 10, 12, and 24 h postdose. Additional blood samples were taken at days 3, 4, 7, 11, 15, 22, and 36 for piperaquine drug measurements. The exact drug administration and sampling times were recorded. Blood and plasma were separated by centrifugation at 2000 × g at 4°C for 7 min. All plasma samples were stored below -70°C and transferred on dry ice to the Department of Clinical Pharmacology, Mahidol-Oxford Tropical Medicine Research Unit (MORU), Bangkok, Thailand, for drug quantification. Plasma concentrations of DHA and piperaquine were measured using solid-phase extraction followed by liquid chromatography coupled with tandem mass spectrometry 25, 26. Quality control samples at low, middle and high concentration (5.87, 117 and 1880 ng ml^-1 for DHA and 4.50, 20.0 and 400 ng ml^-1 for piperaquine) were analysed in triplicate within each batch of study samples, to ensure the accuracy and precision of the drug assay. […] The lower limit of quantification (LLOQ) was set to be 2.00 ng ml^-1 for DHA and 1.50 ng ml^-1 for piperaquine. The laboratory is a participant in the QA/QC proficiency testing programme supported by the Worldwide Antimalarial Resistance Network 27. DHA and piperaquine plasma concentrations were transformed into their natural logarithms and analysed using a nonlinear mixed-effects modelling approach in NONMEM version 7.3 (Icon Development Solution, Ellicott City, MD, USA). […] version 2.9.0 28, Perl-speaks-NONMEM version 3.5.3 (PsN) 29 and Xpose version 4.0 30 were used for automation, model evaluation and diagnostics during the model-building process. The first-order conditional estimation method with interactions (continuous data only) or the Laplacian estimation method (a combination of continuous and categorical data) was used throughout modelling and simulation. […] Therefore, two LLOQ methods were evaluated during the model-building process 31. Data below the LLOQ were omitted (M1 method) or modelled as categorical data (M3 method). Model fitness was evaluated primarily by the objective function value (OFV; calculated by NONMEM as proportional to -2 × log-likelihood of the data). […] One-, two-, three- and four-compartment structural disposition models were evaluated for DHA and piperaquine. The best performing model was used to evaluate the absorption characteristics of DHA and piperaquine (i.e. first-order absorption with and without lag time, zero-order absorption and transit absorption). The transit compartment absorption model is a more mechanistic description of delayed absorption compared with the dichotomous properties of a lag-time model 32.

[2] = cited from earlier work
[3] = Drug-drug interaction with primaquine coadministration (stepwise and full covariate approach, bootstrap n = 1000); type: in vivo, human; details: for Effect of primaquine coadministration on pharmacokinetic properties: stepwise covariate approach
Source text: All continuous and categorical covariates (aspartate aminotransferase, alanine aminotransferase, alkaline phosphatase, haemoglobin, blood urea nitrogen, serum creatinine level, albumin level, primaquine coadministration and age) were investigated by using a stepwise forward inclusion (P‐value <0.05), followed by stepwise backward elimination (P‐value >0.001). A strict P‐value of 0.001 for the backward elimination was used as there were relatively few subjects in the present study 34. Gender was not evaluated as a covariate owing to the substantial imbalance between male and female subjects (five males out of 16 subjects). The effect of primaquine coadministration was also modelled separately, using a full covariate approach in which the primaquine coadministration was implemented as a categorical covariate on all pharmacokinetic parameters (except relative bioavailability owing to identifiability issues) in the final pharmacokinetic model. The full covariate models were bootstrapped (n = 1000) to determine a potentially influential drug–drug interaction on primary and secondary pharmacokinetic parameters. A primaquine‐dependent change of more than ±25% in parameter estimates was deemed a clinically relevant drug–drug interaction.

[4] = human, with primaquine, Bayesian post hoc estimates
[5] = human, with primaquine, Bayesian post hoc estimates, read-out: t1/2 (terminal half-life), median (range) (converted)
[6] = human, without primaquine, Bayesian post hoc estimates
[7] = human, without primaquine, Bayesian post hoc estimates, read-out: t1/2 (terminal half-life), median (range) (converted)
[8] = healthy volunteers, typical individual 64 kg
[9] = healthy volunteers, typical individual 64 kg, two-compartment model
[10] = F fixed to 100% for the population
[11] = healthy volunteers, typical individual 64 kg, three-compartment model
[12] = full covariate approach, 95% CI included zero effect

Compound: COc1cc(NC(C)CCCN)c2ncccc2c1 (centres unmarked) [primaquine]
- Relationship between ΔQTc and primaquine concentrations (QT interval; primaquine-alone arm, 30 mg base, ordinary linear regression): no correlation; also recorded: no impact on ventricular repolarization
- Effect of primaquine on the piperaquine exposure-QTc prolongation relationship (QT interval; stepwise covariate approach): did not affect the relationship

Compound: C[C@H]1[C@@H](O)O[C@@H]2O[C@@]3(C)CC[C@H]4[C@H](C)CC[C@@H]1[C@@]24OO3 [dihydroartemisinin]
- half-life ([1]; human, three-compartment model, not carried forward, read-out: Median terminal half-life from the three-compartment model (converted)): 3.11 h
- AUC [1, 4]: 798 ng·h/mL
- Cmax [1, 4]: 357 ng/mL
- Tmax [1, 4]: 1.27 h
- half-life [1, 5]: 2.2 h
- AUC [1, 6]: 767 ng·h/mL
- Cmax [1, 6]: 361 ng/mL
- Tmax [1, 6]: 1.3 h
- half-life [1, 7]: 2.2 h
- MTT (mean transit time), population estimate (%RSE) [1, 8]: 0.567 (11.4%) h
- CL/F (oral clearance), population estimate (%RSE) [1, 8]: 148 (10.6%) l h^-1
- VC/F (apparent central volume of distribution), population estimate (%RSE) [1, 8]: 214 (16.9%) l
- ka (absorption rate constant from last transit compartment to central compartment), population estimate (%RSE) [1, 8]: 2.89 (37.1%) h^-1
- QP/F (inter-compartment clearance), population estimate (%RSE) [1, 9]: 28.5 (26.0%) l h^-1
- VP/F (apparent peripheral volume of distribution), population estimate (%RSE) [1, 9]: 65.9 (19.1%) l
- Between-occasion variability of ka, %CV (%RSE) ([1]; human, in vivo): 89.0% (23.7%) ^*
- Between-occasion variability of ka, %CV (%RSE) ([1]; human, in vivo, listed as DHA): 89.0%
- Elimination half-life [2]: 1 to 2 h
- Terminal half-life in previous reports [2]: 8.7 to 150 min
- Effect of primaquine coadministration on pharmacokinetic properties ([3]; listed as DHA): did not affect the pharmacokinetic properties; also recorded: did not have a significant impact

Compound: Clc1ccc2c(N3CCN(CCCN4CCN(c5ccnc6cc(Cl)ccc56)CC4)CC3)ccnc2c1 [piperaquine]
- Between-occasion variability of F (relative bioavailability), %CV (%RSE) [1, 10]: 19.1% (13.3%) ^*
- Between-subject variability of F (relative bioavailability), %CV (%RSE) [1, 10]: 17.9% (34.0%)
- Cmax [1, 4]: 300 ng/mL
- Tmax [1, 4]: 3.98 h
- half-life [1, 5]: 530 h
- Cmax [1, 6]: 332 ng/mL
- Tmax [1, 6]: 3.76 h
- half-life [1, 7]: 530 h
- MTT (mean transit time), population estimate (%RSE) [1, 8]: 3.13 (9.42%) h
- CL/F (oral clearance), population estimate (%RSE) [1, 8]: 27.4 (5.50%) l h^-1
- VC/F (apparent central volume of distribution), population estimate (%RSE) [1, 8]: 751 (23.5%) l
- QP1/F (inter-compartment clearance), population estimate (%RSE) [1, 11]: 206 (9.56%) l h^-1
- QP2/F (inter-compartment clearance), population estimate (%RSE) [1, 11]: 71.5 (9.01%) l h^-1
- VP1/F (apparent peripheral volume of distribution), population estimate (%RSE) [1, 11]: 1900 (8.23%) l
- Between-occasion variability of MTT, %CV (%RSE) ([1]; human, in vivo): 32.2% (13.4%) ^*
- Between-subject variability of CL/F, %CV (%RSE) ([1]; human, in vivo): 10.9% (37.2%)
- Between-subject variability of QP2/F, %CV (%RSE) ([1]; human, in vivo): 24.1% (36.3%)
- Between-subject variability of VC/F, %CV (%RSE) ([1]; human, in vivo): 42.4% (40.9%)
- Variability in the absorption characteristics ([1]; human, in vivo): below 35%
- Day 7 conc., median (range) ([1]; with primaquine, Bayesian post hoc estimates): 16.7 (13.8–28.9) ng ml^-1
- Day 7 conc., median (range) ([1]; without primaquine, Bayesian post hoc estimates): 18.3 (10.5–34.9) ng ml^-1
- Terminal elimination half-life ([2]; introduction): 480 to 720 h
- Increase in piperaquine trough concentrations at week 36 compared with week 4 ([2]; repeated bimonthly treatment doses): 267% (range 146–381%)
- Increase in piperaquine trough concentrations at week 36 compared with week 4 ([2]; repeated monthly treatment doses): 336% (range 271–402%)
- Median maximum piperaquine concentration ([2]; standard 3-day regimen of 50 mg kg^-1, pregnant and nonpregnant women with uncomplicated P. falciparum malaria): 244 ng/mL
- Median decrease in central volume of distribution during concomitant primaquine [3, 12]: 37.3% (95% CI −67.6%, 33.7%)
- Median increase in mean transit absorption time during concomitant primaquine [3, 12]: 26.8% (95% CI −21.2%, 62.5%)
- Effect of primaquine coadministration on pharmacokinetic properties [3]: did not affect the pharmacokinetic properties; also recorded: did not have a significant impact
- SLOPE (slope of the relationship between piperaquine concentration and ΔΔQTc prolongation), population estimate (%RSE) (QT interval; linear direct-response model, healthy volunteers): 0.0417 (12.5%) ms (ng ml^-1)^-1
- Relationship between piperaquine drug concentrations and ΔQRS (QT interval; ordinary linear regression, P = 0.520): no significant relationship
- Population mean increase in ΔΔQTc (QT interval) per 100 ng ml^-1 increase in piperaquine plasma concentration (QT interval; per 100 ng ml^-1, individually corrected QT, healthy volunteers): 4.17 ms

From paper PMC5698590 (British Journal of Clinical Pharmacology, 2017)
